Test results as given in patent publication US20150232509A1, “SPIRO RING COMPOUNDS AS HEPATITIS C VIRUS (HCV) INHIBITORS” (SUNSHINE LAKE PHARMA CO., LTD., priority 2012, published 2015).

What was measured:
HCV GT1b replicon cells = assay: HCV Replicon assay, GT1b replicon cells (Luciferase / NEO qPCR); type: cell-based; settings: Hepatitis C virus, 72 hours incubation, read-out: EC50 against HCV 1b genotype
Method: (§1) An HCV Replicon assay was utilized in the present invention, and was prepared, developed and validated as described in Science, 1999, 285 (5424), 110-3 and J. Virol., 2003, 77 (5), 3007-19.
(§2) HCV GT1a, GT1b and GT2a replicon cells were used to test the currently described compound series as well as wild-type cells HCV 1b and resistant cells Y93H, L31F, P32L and 1302V. […]
(§3) The GT1a cells and GT1b cells were seeded into 96-well plates (8,000 cells in 125 μL/well) respectively; each compound was diluted to desired concentration using 5-fold serial dilutions protocol, 10 doses in duplicate, and added to wells with POD™ 810 Plate Assembler. The final concentration of DMSO was 0.5%; the plates were incubated in a CO2 incubator for 72 hours; after that, 40 μL of Luciferase assay substrate (Promega Bright-Glo) was added to each well, and detected by a chemiluminescence detection system (Topcount Microplate Scintillation and Luminescence Counter) 5 minutes later; data analysis.
(§4) The GT1a cells and GT1b cells were seeded into 96-well plates (8,000 cells in 125 μL/well) respectively; each compound was diluted to desired concentration using 5-fold serial dilutions protocol, 10 doses in duplicate, and added to wells with POD™ 810 Plate Assembler., the final concentration of DMSO was 0.5%; the cells were incubated in a CO2 incubator for 72 hours; quantitative PCR. • Sample preparation: the supernatant was removed, 100 μL of FCW buffer solution was added to each well, washed carefully and discarded the solution; 50 μL of lysate FCP was added to each well, the cells was lysed as PCR template and PCR template was diluted with DEPC water as sample template. • Quantitative PCR: preparation of reaction mixture according to PCR system; the reaction mixture was dispensed into a 384-well PCR reaction plate (specially for quantitative); and a standard template which was diluted in proportion was distributed into the plate; and the sample template was distributed into the plate; then the 384-well plate was sealed with closure plate membrane; the […] PCR machine was operated by procedures; data analysis. 3. Data Processing: the EC50 Values of Compounds were Analyzed by GraphPad Prism Software.

HCV GT1a replicon cells = assay: HCV Replicon assay, GT1a replicon cells (Luciferase / NEO qPCR); type: cell-based; settings: Hepatitis C virus, 72 hours incubation, read-out: EC50 against HCV 1a genotype
Method: as §1, §2, §3, §4

SMILES | EC50 (HCV GT1b replicon cells) | EC50 (HCV GT1a replicon cells)
COC(=O)N[C@H](C(=O)N1C2CC2C[C@H]1c1ncc(-c2ccc(-c3ccc(-c4ccc5nc([C@@H]6CC7CC7N6C(=O)[C@@H](NC(=O)OC)C(C)C)[nH]c5c4)c4c3C3(CCCC3)CC4)cc2)[nH]1)C(C)C (stereo partly shown) [Example 32] | 0.077 nM | 0.064 nM
COC(=O)N[C@H](C(=O)N1C2CCC(C2)[C@H]1c1ncc(-c2ccc(-c3ccc(-c4ccc5nc([C@@H]6C7CCC(C7)N6C(=O)[C@@H](NC(=O)OC)C(C)C)[nH]c5c4)c4c3C3(CCCC3)CC4)cc2)[nH]1)C(C)C (stereo partly shown) [Example 33] | 0.039 nM | 0.09 nM
COC(=O)N[C@H](C(=O)N1CCC[C@H]1C(=O)Nc1cccc(-c2ccc(-c3ccc(-c4cnc([C@@H]5CCCN5C(=O)[C@@H](NC(=O)OC)C(C)C)[nH]4)cc3)c3c2CCC32CCCC2)c1)C(C)C [Example 34] | 0.017 nM | 0.837 nM
COC(=O)N[C@H](C(=O)N1CC(C)=C[C@H]1c1ncc(-c2ccc(-c3ccc(-c4cnc([C@@H]5C=C(C)CN5C(=O)[C@@H](NC(=O)OC)C(C)C)[nH]4)c4c3C3(CCCC3)CC4)cc2)[nH]1)C(C)C [Example 35] | 0.086 nM | 0.518 nM
COC(=O)N[C@H](C(=O)N1CCC[C@H]1c1nc(-c2ccc(-c3ccc(-c4ccc5nc([C@@H]6CCCN6C(=O)[C@@H](NC(=O)OC)C(C)C)[nH]c5c4)c4c3CCC43CCCC3)c3c2CCC3)c[nH]1)C(C)C [Example 36] | 0.089 nM | 1.08 nM
COC(=O)N[C@H](C(=O)N1CCC[C@H]1c1ncc(-c2ccc(-c3ccc(-c4ccc5nc([C@@H]6CCCN6C(=O)[C@@H](NC(=O)OC)C(C)C)[nH]c5c4)c4c3CCC43CCCC3)c3ccccc23)[nH]1)C(C)C [Example 37] | 0.099 nM | 3.78 nM
COC(=O)N[C@H](C(=O)N1CCC[C@H]1c1ncc(-c2ccc(-c3ccc(-c4ccc5nc([C@@H]6CCCN6C(=O)[C@@H](NC(=O)OC)C(C)C)[nH]c(=O)c5c4)c4c3C3(CCCC3)CC4)cc2)[nH]1)C(C)C [Example 38] | 0.009 nM | 0.066 nM
COC(=O)N[C@H](C(=O)N1CCC[C@H]1C1=Nc2ccc(-c3cnc(-c4ccc(-c5cnc([C@@H]6CCCN6C(=O)[C@@H](NC(=O)OC)C(C)C)[nH]5)cc4)c4c3CCC43CCCC3)cc2S(=O)(=O)N1)C(C)C [Example 39] | 0.02 nM | 0.027 nM
COC(=O)N[C@H](C(=O)N1CCC[C@H]1c1nc2ccc(-c3ccc(-c4ccc5nc([C@@H]6CCCN6C(=O)[C@@H](NC(=O)OC)C(C)C)[nH]c5c4)c4c3CCC43CCC3)cc2[nH]1)C(C)C [Example 40] | 0.017 nM | 0.043 nM
COC(=O)N[C@H](C(=O)N1CCC[C@H]1c1ncc(-c2ccc(-c3ccc(-c4ccc5nc([C@@H]6CCCN6C(=O)[C@@H](NC(=O)OC)C(C)C)[nH]c5c4)c4c3CCCC43CCC3)s2)[nH]1)C(C)C [Example 41] | 0.043 nM | 0.876 nM
COC(=O)N[C@H](C(=O)N1CC(F)(F)C[C@H]1c1nc(-c2ccc(-c3ccc(-c4cnc([C@@H]5CC(F)(F)CN5C(=O)[C@@H](NC(=O)OC)C(C)C)[nH]4)c4c3C3(CCOCC3)CC4)cc2)c[nH]1)C(C)C [Example 42] | 0.109 nM | 6.89 nM
COC(=O)N[C@H](C(=O)N1CCC[C@H]1c1ncc(-c2ccc(-c3ccc(-c4cnc([C@@H]5CCCN5C(=O)[C@@H](NC(=O)OC)c5ccccc5)[nH]4)c4c3C3(CC4)CCN(C)CC3)cc2)[nH]1)c1ccccc1 [Example 43] | 0.148 nM | 7.28 nM
COC(=O)N[C@H](C(=O)N1CCC[C@H]1c1ncc(-c2ccc(-c3ccc(-c4cnc([C@@H]5CCCN5C(=O)[C@@H](NC(=O)OC)C(C)C)[nH]4)c4c3C3(CC4)CCC(C)CC3)s2)[nH]1)C(C)C (stereo partly shown) [Example 44] | 0.937 nM | 13.7 nM
COC(=O)N[C@H](C(=O)N1CCC[C@H]1c1ncc(-c2ccc(-c3ccc(-c4ccc5nc([C@@H]6CCCN6C(=O)[C@@H](NC(=O)OC)C(C)C)[nH]c5c4)c4c3CCCC43CCCC3)nc2)[nH]1)C(C)C [Example 45] | 0.034 nM | 0.107 nM
